Consider one molecule from publication PMC11455950, “Effects of SZV-2649, a new multiple ion channel inhibitor mexiletine analogue” (Scientific Reports, 2024).

This test relates to dog right ventricular muscle preparations. As to the kind of experiment: Conventional microelectrode action potential recording, dog ventricular muscle. Conditions: for APA / APD50 / APD90 / RP / Vmax: ventricular muscle, CL = 1000 ms, n = 8. The procedure: The effects of SZV-2649 on action potentials were studied in dog ventricular, atrial and Purkinje fiber preparations.
The Class I antiarrhythmic property of SZV-2649 was further studied with different frequency-dependent protocols. […]. Action potentials were recorded in cardiac ventricular trabeculae and papillary muscle preparations obtained from the right ventricles of Beagle dogs (10–15 kg) of either sex using the conventional microelectrode technique. Dogs were sacrificed by iv. sedation with xylazine (1 mg/kg), followed by i.v. administration of 50 mg/kg pentobarbital. After the cornea reflex disapeared the chest was opened, and the heart was rapidly removed. The heart was immediately rinsed in oxygenated modified Locke’s solution containing (in mM): NaCl 128.3, KCl 4, CaCl2 1.8, MgCl2 0.42, NaHCO3 21.4, and glucose 10. The pH of this solution was set between 7.35 and 7.4 when gassed with the mixture of 95% O2 and 5% CO2 at 37 °C.
Isolated papillary muscle or atrial trabecula and Purkinje fiber preparations were obtained and prepared from the right ventricle and were individually mounted in a tissue chamber with the volume of 50 ml. Each preparation was initially stimulated through a pair of platinum electrodes in contact with the preparation using rectangular current pulses of 2 ms duration. These stimuli were delivered at a constant cycle length of 1000 ms for at least 60 min allowing the preparation to equilibrate before the measurements were initiated. Transmembrane potentials were recorded using conventional glass microelectrodes, filled with 3 M KCl and having tip resistances of 5–20 MΩ, connected to the input of a high impedance electrometer (Experimetria, type 309, Budapest, Hungary) which was coupled to a dual beam oscilloscope. […] Stimulation with a constant cycle length of 1000 ms was applied in the course of all experiments. Attempts were made to maintain the same impalement throughout each experiment. In case an impalement became dislodged, adjustment was attempted, and if the action potential characteristics of the re-established impalement deviated by less than 5% from the previous measurement, the experiment continued[64]–[67]. All measurements were carried out at 37 °C.

Consider `CC(N)COc1c(I)cc(C#N)cc1I.Cl` (stereo not drawn) [SZV-2649, 4-(2-aminopropoxy)-3,5-diiodobenzonitrile hydrochloride], for which, for the setting “5 µM”, the APA stood at 118.3 ± 1.9 mV, the APD50 stood at 212.2 ± 5.7 ms, the APD90 amounted to 251.6 ± 4.0 ms and the RP is −84.5 ± 2.0 mV. Under “5 µM”, the Vmax is listed as 227.4 ± 24.2 V/s. Also, under “10 µM, dog ventricular muscle, premature stimulation from 1 Hz basic frequency”, the “Recovery time constant of Vmax (offset kinetics of Vmax block, τoffset)” value is listed as 590 ms. For the same molecule, under “10 µM”, the APA is reported as 117.1 ± 2.1 mV, the APD50 was determined as 213.4 ± 5.8 ms, the APD90 was 252.8 ± 5.0 ms and the RP is reported as −86.1 ± 2.0 mV. Further, the Vmax (10 µM) was 203.2 ± 24.3 V/s. For the same molecule, for the setting “[…]”, the Vmax is reported as 228.3 ± 23.5 V/s.
